Data from ChEMBL document CHEMBL4130390, “Crystal structure of Porphyromonas gingivalis dipeptidyl peptidase 4 and structure-activity relationships based on inhibitor profiling” (Eur J Med Chem, 2017).

How the values were obtained:
[1] = target: Dipeptidyl peptidase IV (Porphyromonas gingivalis) (UniProt O31048); test: Inhibition of Porphyromonas gingivalis N-terminal His-tagged DPP4 expressed in Escherichia coli at 10 uM using Gly-Pro-p-nitroanilide as substrate relative to control
[2] = target: Dipeptidyl peptidase IV (Porphyromonas gingivalis) (UniProt O31048); test: Inhibition of Porphyromonas gingivalis N-terminal His-tagged DPP4 expressed in Escherichia coli at 100 uM using Gly-Pro-p-nitroanilide as substrate relative to control
Dipeptidyl peptidase IV = Dipeptidyl peptidase IV (Porphyromonas gingivalis, UniProt O31048); test: Inhibition of Porphyromonas gingivalis N-terminal His-tagged DPP4 expressed in Escherichia coli using Gly-Pro-p-nitroanilide as substrate
[3] = Selectivity index, ratio of IC50 for human DPP4 to IC50 for Porphyromonas gingivalis N-terminal His-tagged DPP4 expressed in Escherichia coli

Chain of Dipeptidyl peptidase IV (Porphyromonas gingivalis) (O31048 20-723 limits assumed): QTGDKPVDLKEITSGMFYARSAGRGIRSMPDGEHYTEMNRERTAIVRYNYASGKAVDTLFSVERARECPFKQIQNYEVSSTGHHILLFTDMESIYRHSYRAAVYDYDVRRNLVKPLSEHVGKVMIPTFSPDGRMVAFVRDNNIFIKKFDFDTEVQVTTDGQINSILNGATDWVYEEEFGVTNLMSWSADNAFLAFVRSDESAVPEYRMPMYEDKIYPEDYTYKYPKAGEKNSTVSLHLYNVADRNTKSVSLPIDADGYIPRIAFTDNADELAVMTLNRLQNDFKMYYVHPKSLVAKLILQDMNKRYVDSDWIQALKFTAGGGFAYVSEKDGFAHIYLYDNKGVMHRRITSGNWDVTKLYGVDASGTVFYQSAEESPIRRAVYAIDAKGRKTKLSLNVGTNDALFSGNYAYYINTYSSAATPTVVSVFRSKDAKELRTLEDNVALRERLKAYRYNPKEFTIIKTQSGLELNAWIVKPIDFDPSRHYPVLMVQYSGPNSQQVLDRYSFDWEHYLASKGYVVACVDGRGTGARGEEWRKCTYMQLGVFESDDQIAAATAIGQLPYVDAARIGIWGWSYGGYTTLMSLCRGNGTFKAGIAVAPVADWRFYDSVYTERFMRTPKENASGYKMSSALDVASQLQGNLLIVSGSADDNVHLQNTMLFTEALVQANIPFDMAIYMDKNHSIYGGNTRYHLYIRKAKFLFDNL
Chain of Dipeptidyl peptidase IV (O31048 20-723 limits assumed): as above

Row | SMILES | inhibition [1] [%] | inhibition [2] [%] | IC50 (Dipeptidyl peptidase IV) | IC50 (Dipeptidyl peptidase IV; read-out: IC50) [µM] | Ratio IC50 [3]
1 | NC(CC(=O)N1CCN(C(c2ccc(F)cc2)c2ccc(F)cc2)CC1)C(=O)N1CCC(C(F)(F)F)C1 (stereo unspecified) | > 50 | < 50 | IC50 10-100 uM |  | 
2 | N#C[C@@H]1C[C@H](N=[N+]=[N-])CN1C(=O)[C@@H](N)CCC(=O)N1CCNCC1 | > 50 | < 50 |  | 0.48 | 1.2
3 | NC(CCCCN(Cc1ccccc1)Cc1ccccc1)C(=O)N1CCCC1 (stereo unspecified) | > 50 | < 50 |  | 3.4 | 0.88
4 | N#C[C@@H]1CCCN1C(=O)[C@@H](N)CCCCNC(=O)OCc1ccccc1 | > 50 | < 50 |  | 1.5 | 0.02
5 | NC(CC(=O)N1CCN(C(c2ccccc2)c2ccc(Cl)cc2)CC1)C(=O)N1Cc2ccc(F)cc2C1 (stereo unspecified) | > 50 | < 50 |  | 17 | > 5.9
6 | NC(CCCCNC(=O)Oc1ccccc1)C(=O)N1CCCC1 (stereo unspecified) | > 50 | < 50 | IC50 10-100 uM |  | 
7 | CC(C)[C@H](N)C(=O)N1CCCC1B(O)O (stereo partly specified) | > 50 | < 50 |  | 0.14 | 
8 | NC(CC(=O)N1CCN(C(c2ccc(F)cc2)c2ccc(F)cc2)CC1)C(=O)N1Cc2ccccc2C1 (stereo unspecified) | > 50 | < 50 | IC50 10-100 uM |  | 
9 | N#C[C@@H]1C[C@H](N=[N+]=[N-])CN1C(=O)[C@@H](N)CCC(=O)NCCN | > 50 | < 50 |  | 0.8 | 0.5
10 | O=C(C1CC(NCc2ccc3ccccc3c2)CN1)N1Cc2ccccc2C1 (stereo unspecified) | > 50 | < 50 | IC50 10-100 uM |  | 
11 | N[C@@H](CC(=O)N1CCN(C(c2ccc(F)cc2)c2ccc(F)cc2)CC1)C(=O)N1CCCCC1 | > 50 | < 50 | IC50 10-100 uM |  | 
12 | Cc1ccc(S(=O)(=O)NCCCCC(N)C(=O)N2CCCC2)cc1 (stereo unspecified) | > 50 | < 50 | IC50 10-100 uM |  | 
13 | C=C1CC(C)N(C(=O)C(N)CCC(=O)N2CCN(C(c3ccc(F)cc3)c3ccc(F)cc3)CC2)C1 (stereo unspecified) | > 50 | < 50 | IC50 10-100 uM |  | 
14 | CC1CC(N=[N+]=[N-])CN1C(=O)C(N)CCC(=O)N1CCN(C(c2ccc(F)cc2)c2ccc(F)cc2)CC1 (stereo unspecified) | > 50 | < 50 |  | 8 | 0.25
15 | NC(CC(=O)N1CCN(C(c2ccc(F)cc2)c2ccc(F)cc2)CC1)C(=O)N1Cc2ccc(F)cc2C1 (stereo unspecified) | > 50 | < 50 |  | 22 | 2.7
16 | NC(CCCCNCc1ccc2ccccc2c1)C(=O)N1Cc2ccccc2C1 (stereo unspecified) | > 50 | < 50 | IC50 10-100 uM |  | 
17 | NC(CCCNC(=O)OCc1ccccc1)C(=O)N1CCCC1 (stereo unspecified) | > 50 | < 50 | IC50 10-100 uM |  | 
18 | NC(CCCCNC(=O)c1ccccc1)C(=O)N1CCCC1 (stereo unspecified) | > 50 | < 50 | IC50 10-100 uM |  | 

Row | SMILES | inhibition [1] [%] | inhibition [2] [%] | IC50 (Dipeptidyl peptidase IV) | IC50 (Dipeptidyl peptidase IV; read-out: IC50) [µM] | Ratio IC50 [3]
19 | NC(CCCCNC(=O)Nc1ccccc1)C(=O)N1CCCC1 (stereo unspecified) | > 50 | < 50 | IC50 10-100 uM |  | 
20 | CC1C[C@@H](C#N)N(C(=O)[C@@H](N)CC(=O)N2CCN(C(c3ccc(F)cc3)c3ccc(F)cc3)CC2)C1 (stereo partly specified) | > 50 | < 50 | IC50 10-100 uM |  | 
21 | CC1CCN(C(=O)C(N)CC(=O)N2CCN(C(c3ccc(F)cc3)c3ccc(F)cc3)CC2)C1 (stereo unspecified) | > 50 | < 50 | IC50 10-100 uM |  | 
22 | N#CC1CC(N=[N+]=[N-])CN1C(=O)C1CC(NCc2ccc3ccccc3c2)CN1 (stereo unspecified) | > 50 | < 50 | IC50 10-100 uM |  | 
23 | NC(CCCCN(Cc1ccccc1)Cc1ccccc1)C(=O)N1Cc2ccccc2C1 (stereo unspecified) | > 50 | < 50 | IC50 10-100 uM |  | 
24 | N[C@@H](CCCCNC(=O)OCc1ccccc1)C(=O)N1CCCC1 | > 50 | < 50 |  | 22 | 0.7 to 0.71
25 | NCCCCC(N)C(=O)N1Cc2ccccc2C1 (stereo unspecified) | > 50 | < 50 | IC50 10-100 uM |  | 
26 | NC(C(=O)N1Cc2ccccc2C1)C1CCCCC1 (stereo unspecified) | > 50 | < 50 | IC50 10-100 uM |  | 
27 | NC(CCCCNCc1ccccc1)C(=O)N1CCCC1 (stereo unspecified) | > 50 | < 50 |  | 3.1 | 1.2
28 | N#CC1CC(N=[N+]=[N-])CN1C(=O)C(N)CCCCN(Cc1ccc2ccccc2c1)Cc1ccc2ccccc2c1 (stereo unspecified) | > 50 | < 50 |  | 0.58 | 
29 | NC(CCCCN(Cc1ccc2ccccc2c1)Cc1ccc2ccccc2c1)C(=O)N1CCCC1 (stereo unspecified) | > 50 | < 50 |  | 3.5 | 1.2
30 | C=C1CCN(C(=O)C(N)CC(=O)N2CCN(C(c3ccc(F)cc3)c3ccc(F)cc3)CC2)C1 (stereo unspecified) | > 50 | < 50 | IC50 10-100 uM |  | 
31 | NC(CC(=O)N1CCN(C(c2ccccc2)c2ccc(Cl)cc2)CC1)C(=O)N1Cc2ccccc2C1 (stereo unspecified) | > 50 | < 50 | IC50 10-100 uM |  | 
32 | NC(CCCCNCc1ccccc1)C(=O)N1Cc2ccccc2C1 (stereo unspecified) | > 50 | < 50 |  | 11 | > 4.5
33 | CC1CC(N=[N+]=[N-])CN1C(=O)C(N)CCC(=O)N1CCN(Cc2ccc(F)cc2)CC1 (stereo unspecified) | > 50 | < 50 |  | 2.4 | 0.425
34 | NC(CCCNC(=NC(=O)OCc1ccccc1)NC(=O)OCc1ccccc1)C(=O)N1CCCC1 (stereo unspecified) | > 50 | < 50 | IC50 10-100 uM |  | 
35 | N[C@@H](CC(=O)N1CCn2c(nnc2C(F)(F)F)C1)Cc1cc(F)c(F)cc1F [SITAGLIPTIN] | > 50 | < 50 |  | 18 | 
36 | NCCNC(=O)CCC(N)Cc1ccccc1 (stereo unspecified) | > 50 | < 50 | IC50 10-100 uM |  | 

The remaining lines, values ahead:

Row | inhibition [1] [%] | inhibition [2] [%] | IC50 (Dipeptidyl peptidase IV) | IC50 (Dipeptidyl peptidase IV; read-out: IC50) [µM] | Ratio IC50 [3] | SMILES
37 | > 50 | < 50 | IC50 10-100 uM |  |  | CC[C@H](C)[C@H](N)C(=O)N1CCCC1
38 | > 50 | < 50 | IC50 10-100 uM |  |  | CCC(C)C(N)C(=O)N1CCSC1 (stereo unspecified)
39 | > 50 | < 50 |  | 19 |  | CC(C)C(N)C(=O)N1CCCC1 (stereo unspecified)
40 | > 50 |  | IC50 10-100 uM |  |  | CC[C@@H](C)[C@H](N)C(=O)N1Cc2ccccc2C1
41 | > 50 |  |  | 19 |  | CC[C@H](C)[C@H](N)C(=O)N1CCSC1
42 | > 50 | < 50 | IC50 10-100 uM |  |  | CC[C@@H](C)[C@H](N)C(=O)N1C[C@H](N=[N+]=[N-])C[C@H]1C#N
43 | > 50 | < 50 | IC50 10-100 uM |  |  | CCC(C)C(N)C(=O)N1CCC(C)C1 (stereo unspecified)
44 | > 50 | < 50 | IC50 10-100 uM |  |  | CN(CCCCC(N)C(=O)N1CCCC1)Cc1ccccc1 (stereo unspecified)
45 | > 50 | < 50 |  | 9.4 | 0.52 | CNCCCCC(N)C(=O)N1CCCC1 (stereo unspecified)
46 | > 50 | < 50 | IC50 10-100 uM |  |  | CCC(C)C(N)C(=O)N1Cc2ccc(F)cc2C1 (stereo unspecified)
47 | > 50 | < 50 |  | 19 | 0.09 | NCCCCC(N)C(=O)N1CCSC1 (stereo unspecified)
48 | > 50 | < 50 |  | 1.6 | 0.16 to 0.2 | N#C[C@@H]1CCCN1C(=O)[C@@H](N)CCCCN
49 | > 50 | < 50 |  | 22 | 0.18 | CCC(C)C(N)C(=O)N1CCCC1 (stereo unspecified)
50 | > 50 | < 50 | IC50 10-100 uM |  |  | CCC(C)C(N)C(=O)N1CC=CC1 (stereo unspecified)
51 | > 50 | < 50 |  | 22 | 0.17 | NC(CCCCNC(=O)OCc1ccccc1)C(=O)N1CCSC1 (stereo unspecified)
52 | > 50 | < 50 | IC50 10-100 uM |  |  | CCC(C)C(N)C(=O)N1CCC(N=[N+]=[N-])C1 (stereo unspecified)
53 | > 50 | < 50 | IC50 10-100 uM |  |  | CC[C@H](C)[C@H](N)C(=O)N1CCC(F)C1 (stereo partly specified)
54 | > 50 | < 50 | IC50 10-100 uM |  |  | CS(=O)(=O)NCCCCC(N)C(=O)N1CCCC1 (stereo unspecified)
55 | > 50 | < 50 | IC50 10-100 uM |  |  | CC(=O)NCCCCC(N)C(=O)N1CCCC1 (stereo unspecified)
56 | > 50 | < 50 | IC50 10-100 uM |  |  | CCC(C)C(N)C(=O)N1CC=CCC1 (stereo unspecified)
57 | > 50 | < 50 | IC50 10-100 uM |  |  | N=C(N)NCCCC(N)C(=O)N1CCCC1 (stereo unspecified)
58 | > 50 | < 50 | IC50 10-100 uM |  |  | C=C1CCN(C(=O)C(N)C(C)CC)C1 (stereo unspecified)
59 | > 50 | < 50 | IC50 10-100 uM |  |  | CCCCC(N)C(=O)N1CCCC1 (stereo unspecified)
60 | > 50 | < 50 | IC50 10-100 uM |  |  | CC[C@@H](C)[C@@H](N)C(=O)N1CCC(C#N)C1 (stereo partly specified)
61 | > 50 |  |  | 29 |  | CC(C)[C@H](N)C(=O)N1CCCC1
62 | > 50 | < 50 |  | 100 |  | CC(O)C(N)C(=O)N1CCCC1 (stereo unspecified)
63 | > 50 | < 50 | IC50 10-100 uM |  |  | CCC(C)C(N)C(=O)N1CCC(Cl)C1 (stereo unspecified)
64 | > 50 | < 50 | IC50 10-100 uM |  |  | CCC(C)C(N)C(=O)N1Cc2ccccc2C1 (stereo unspecified)
